Test results as given in patent publication EP4455142A1, “NOVEL INHIBITOR OF QPCTL AND/OR QC” (Scenic Immunology B.V., priority 2023, dated 2024).
Converted amounts (≈) assume the structure as drawn.

What was measured:
recombinant QC enzyme = molecular target: T1, recombinant QC enzyme (Homo sapiens, UniProt Q16769); assay: Assay 2 - QC potency, fluorescent enzymatic assay (H-Gln-AMC, coupled pGAPase detection); format: biochemical; settings: 1 hour at 37°C
T1 construct: bacterial expression of residues 33-361 of uniprot ID Q16769, fused to a His tag; His tag (cleaved yes); made in house
Description: After scale-up, expression and lysis, protein was purified by Ni-NTA IMAC, dialysed in the presence of Factor Xa, further purified by Ni-NTA reverse IMAC and finally filtrated for size on a Superdex 200 16/60 column. Final protein was concentrated using a spin concentrator at 10 kDa molecular weight cut-off and formulated in 150 mM NaCl, 50 mM Tris-HCl, 50% Glycerol, pH 8.0.
Pyroglutamylation was measured by conversion of glutamine-4-amino-7-methylcoumarine (H-Gln-AMC, Bachem) to pyroglutamyl-AMC, which is subsequently a specific substrate for pyroglutamylaminopeptidase (pGAPase, Qiagen), releasing free AMC which can be fluorescently detected. For a typical inhibition assay, 7.5 µL aliquots of threefold dilutions of test compound in 50 mM Tris pH8 buffer were plated in 384-well plates. 15 µL 20 µM h-Gln-AMC (diluted from a 40 mM stock dissolved in 25 mM HEPES using 50 mM Tris-HCl pH 8.0) was added to each well. Finally, 7.5 µL, 3 ng/µL recombinant QC enzyme was added and the reaction mixture was incubated for 1 hour at 37°C. A 5 minute incubation at 98°C was then performed to denature the QC enzyme and stop the reaction.
25 µL of the pyroglutamylation reaction mixture was transferred into an empty plate and to that, 25 µL of the pGAPase enzyme solution was added. Plates were then incubated for 25 minutes at room temperature before fluorescence readings were taken on an Envision2 plate reader with excitation set at 380 nm and emission at 450 nm.
Controls were taken along containing pyroglutamylated-AMC (Bachem, dissolved at 10 mM in DMSO) instead of H-Gln-AMC to control for pGAPase inhibition.
IC50 values are calculated using non-linear regression analysis with GraphPad Prism software.

pyroglutamylated CD47 = assay: Assay 3 - cell-based potency assay (pyroglutamylation in live cells, total CD47/pE-CD47 dual staining, FACS); set-up: species or system human; settings: IC50 of CC2C6 signal, KBM7 cells, 72 hours incubation
Description: Cells were spun for 4 minutes at 1500 rpm and washed once with PBS / 0.5% BSA. Cells were spun down again and the supernatant was removed and incubated in 100 uL antibody staining solution (PBS / 0.5% BSA / 0.1 µg/mL DAPI (4',6-diamidino-2-phenylindole, ThermoFisher Scientific) and a mixture of 1:500 FITC-conjugated anti-human CD47 clone 2D3, which recognizes total CD47 irrespective of its pyroglutamylation state, and 1:500 Alexa647-conjugated anti-human CD47 clone CC2C6, which specifically detects pyroglutamylated CD47) for 2 hours at 4°C. Next, the cells were spun down and washed twice with 2 x 150 µL PBS / 0.5% BSA to remove unbound antibody. Cells were again spun down and taken up in 300 µL FACS buffer before analysis on a Celesta FACS machine (BD Biosciences).
KBM7 cells (Kotecki et al., 1999) were infected with lentivirus produced by transfecting pSCNC-LentiCRISPR-QPCTL or pSCNC-LentiCRISPR-CD47 into HEK-293T cells according to standard protocols. After 24 hours incubation, cells were selected with puromycin (Invivogen, 1 µg/mL) for 48 hours. Cells were stained for total CD47 and pE-CD47 and QPCTL k.o. cells were sorted out as negative for pE-CD47, and CD47 k.o. cells as negative for total CD47, using a FACSAria III and FACS Diva software (BD Biosciences).
In order to test compounds for their effect on pyroglutamylation in live cells, 25000 KBM7 cells per well were seeded in a 96-well U-bottom plate in 150 µl IMDM / 10% FCS / 1% Pen / Strep medium and a 10-point 2-fold dilution range of test compounds. After 72 hours incubation at 37°C, 5% COz, cells were stained for total CD47 and pE-CD47 and analysed on a BD Celesta using FACS Diva software (BD Biosciences). Cells gated for DAPI negativity were recorded and the median fluorescence intensity (MFI) of each sample was transformed to linearly scale between the MFI's of wildtype and CD47 knockout cells (in case of the 2D3 antibody) and the wildtype and QPCTL knockout cells (in case of the CC2C6 antibody). ICso's were calculated by 3 parameter logistic regression of the CC2C6 signal vs. compound concentration, where the top of the sigmoidal curve was fixed at 1, using R and the drc package (http://www.r-project.org, https://cran.r-project.org/web/packages/drc/index.html).

[1] = Microsomal stability, rat (RLM); format: in vitro ADME; settings: liver microsomes; SD rat microsomes, 0.5 mg protein/mL, 1 µM test compound
Description: (§1) In order to assess metabolic stability of test compounds, commercially acquired CD-1 mouse liver microsome preparations were incubated in 100 µL at a final concentration of 0.5 mg protein/mL, 1 µM test compound, 0.99% methanol and 0.01% DMSO, after a 10 minute pre-incubation at 37°C and addition of 0.1 volumes 10 U/mL NADPH in 10 mM MgCl2. Reactions were stopped by addition of 300 µL cold acetonitrile containing internal standards at t = 0, 5, 10, 20, 30, and 60 minutes. Samples were submitted to LC-MS/MS analysis subsequently and the slope of linear regression of time versus In(% Remaining concentration) was derived to calculate t½ as t½= In(2) /(-Slope). Then Clint(mic) and Clint(liver) were calculated as follows: CLint(mk) = (0.693)/(In vitro T1/2) · (1)/(mg/mL microsomal protein in reaction system) [formula] CLint(liver) = CLint(mic) · (mg microsomes)/(g liver) · (g liver)/(kg body weight) [formula]
(§2) The same procedure was performed for human microsomes, SD rat microsomes and (beagle) dog microsomes.
Where 45 mg microsomal protein/g liver and 40 g liver/kg rat bodyweight were used as standardized parameters for rat microsomes.

[2] = Microsomal stability, dog (DLM); format: in vitro ADME; settings: liver microsomes; (beagle) dog microsomes, 0.5 mg protein/mL, 1 µM test compound
Description: as §1, §2
Where 45 mg microsomal protein/g liver and 32 g liver/kg dog bodyweight were used as standardized parameters for […].

Kinetic solubility = format: physicochemical; settings: aqueous buffer; 50 mM phosphate buffer (pH 7.4), 24 hours at room temperature
Description: To assess the solubility of test compounds 10 µL of a 10 mM solution in DMSO was added to the lower chamber of a whatman miniuniprep (PTFE Filter Media with Polypropylene Housing) vial. 490 µL of 50 mM phosphate buffer (pH 7.4) was added to the lower chamber, the samples were vortexed for at least two minutes and then shaken on a shaker for 24 hours at room temperature at the speed of 880 rpm. The samples were then centrifuged for 20 minutes at 4000 rpm, compressed and the filtrates were injected into a HPLC-UV and LC-MS/MS system to calculate the concentration compared to the standard curve using a ACQUITY UPLC BEH C18 1.7 µm 2.1 * 50 mm column.

T1 sequence (Q16769 33-361): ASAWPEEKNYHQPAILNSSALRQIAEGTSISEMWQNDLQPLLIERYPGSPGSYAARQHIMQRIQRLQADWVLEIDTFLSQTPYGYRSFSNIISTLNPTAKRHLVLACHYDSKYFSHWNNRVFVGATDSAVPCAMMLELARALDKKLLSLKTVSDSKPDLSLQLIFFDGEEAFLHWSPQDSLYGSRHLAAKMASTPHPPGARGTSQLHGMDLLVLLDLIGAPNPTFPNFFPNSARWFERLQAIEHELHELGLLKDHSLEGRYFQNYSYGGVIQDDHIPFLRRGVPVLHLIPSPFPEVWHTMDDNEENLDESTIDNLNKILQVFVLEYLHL

| SMILES | IC50 (recombinant QC enzyme) | IC50 (pyroglutamylated CD47) | CLint scaled at 1 µM [1] | CLint scaled at 1 µM [2] | solubility at 24 h (Kinetic solubility) | IC50 (pyroglutamylated CD47; Homo sapiens, KBM-7, 72 h) |
| --- | --- | --- | --- | --- | --- | --- |
| O=C1OCC(c2ccc(N3CCCC3)cc2)N1c1ccc2[nH]cnc2c1 (single isomer, unassigned) [(18)-ent2] | 31.2 nM | 3490 nM | 64 L/h/kg | 1.97 L/h/kg | 60 µM (≈ 20.9 µg/mL) |  |
| O=C1OCC(c2ccc(C3CCC(F)(F)CC3)cc2)N1c1ccc2[nH]cnc2c1 (single isomer, unassigned) [(19)-ent2] |  | 3730 nM | 2.99 L/h/kg | 1.31 L/h/kg | 42 µM (≈ 16.7 µg/mL) |  |
| O=C1OC[C@H](c2ccc(-c3cnn(C(F)(F)F)c3)cc2F)N1c1ccc2[nH]cnc2c1 [Compound (1)] | 10.3 nM |  |  |  | 121 µM (≈ 52.2 µg/mL) | 92.1 nM |
